Measurements as given in US10912832B2, “Multi-drug delivery system and uses thereof” (Academia Sinica, priority 2014, dated 2021).

B1: PEG-G-CSF: PEGylated Granulocyte Colony-Stimulating Factor (protein, UniProt P09919 31-207, looked up)
Granulocyte …: TPLGPASSLPQSFLLKCLEQVRKIQGDGAALQEKLVSECATYKLCHPEELVLLGHSLGIPWAPLSSCPSQALQLAGCLSQLHSGLFLYQGLLQALEGISPELGPTLDTLQLDVADFATTIWQQMEELGMAPALQPTQGAMPAFASAFQRRAGGVLVASHLQSFLEVSYRVLRHLAQP
modifications: PEGylated
notes: PEGylated Granulocyte Colony-Stimulating Factor

Assays:
HLI mouse model [1] = test: Hindlimb ischemia (HLI) model, PEG-IGF-1: laser Doppler blood flow and limb appearance; type: in vivo, mice
Method: (§1) Microvascular blood flow was measured on a laser Doppler imager (Moor Instrument, UK). The blood flow before surgery, 1 day afterwards, every week for the following 4 weeks was recorded for both limbs and before sacrificing the mice. The data are presented as the blood flow ratio of the ischemia limb (left) to the normal limb (right).

[2] = test system: apoptotic cells at the HA/AGP4 injection site in the ischemic leg muscle; test: HLI model, PEG-IGF-1: TUNEL assay of ischemic leg muscle
Description: The HLI model was created by performing the left femoral artery and iliac artery ligation in mice and then cut to induce hindlimb ischemia (Limbourg et al., Nat. Protocols (2009) 4, 1737-1748.). The administrations for the experimental mice were divided into 3 parts: PEG-IGF-1, PEG-G-CSF, and the combined treatment. The treatment of PEG-IGF-1 and PEG-G-CSF are including five groups: Sham, HLI with the treatment of, 2% HA alone plus therapeutics or HA with AGP4 and followed by PBS or therapeutics. […]
The fixed distal calf and thigh muscles were deparaffinized, rehydrated and boiled in 10 mM sodium citrate (pH 6.0) for 10 minutes, followed by incubation with antibodies against tropomyosin (DHSB, Iowa city, Iowa, USA), WGA and isolectin (Invitrogen, Grand Island, N.Y., USA) at 4° C. overnight, and then incubated with Alexa Fluor 488- or 568-conjugated secondary antibodies (Invitrogen, Carlsbad, Calif., USA). After staining with DAPI (Sigma-Aldrich, St. Louis, Mo., USA), sections were mounted and observed under confocal microscope (LSM 700, Carl Zeiss MicroImaging, Germany) and fluorescence microscope. The capillary and arteriole densities at the border zone were measured and images were taken from 8 randomly-selected ischemic areas (200× magnification) in each sample and quantification was performed by manually counting each section; the 8 values were averaged. […]

HLI mouse model [3] = test: HLI model, PEG-G-CSF: laser Doppler blood flow and limb appearance; type: in vivo, mice; conditions: HA-alone + PEG-G-CSF
Method: as §1
(§2) Results are depicted in FIGS. 5B to 5C.

[4] = test system: hematopoietic stem cells (HSCs) and endothelial progenitor cells (EPCs); test: HLI model, PEG-G-CSF: anti-CD34 / anti-CD133 staining of recruited cells; type: in vivo, mice; conditions: HA/AGP4 + PEG-G-CSF vs HA-alone+PEG-G-CSF and HA/AGP4+PBS
Description: as §2

Row | Molecule | nail discoloration (HLI mouse model [1]; HA-alone + PEG-IGF-1) | blood flow of ischemic leg compared with sham group (HLI mouse model [1]; HA-alone i.m. + PEG-IGF-1 iv, Day 1 or Day 2) | blood flow at the ischemic leg (HLI mouse model [1]; HA/AGP4 i.m. followed by PEG-IGF-1 iv (30 μg, three doses at 8 hrs interval)) | nail discoloration (HLI mouse model [1]; PEG-IGF-1 administered after HA/AGP4) | ischemic damage (HLI mouse model [1]; PEG-IGF-1 injections after HA/AGP4) | number of apoptotic cells (TUNEL) ([2]; HA-alone group, absence of AGP4) | number of apoptotic cells (TUNEL) ([2]; PEG-IGF-1 after administration of HA/AGP4) | nail discoloration (HLI mouse model [3]) | number of recruited cells at the HA/AGP4 injection sites [4]
1 | PEG-IGF-1: PEGylated Insulin Growth Factor-1 | signs of nail discoloration | no significant improvement | did not improve the blood flow | not obvious | minimized the ischemic damage | failed to reduce the number of apoptotic cells | significant reduction in apoptotic cells |  | 
2 | B1 |  |  |  |  |  |  |  | nail discoloration was seen | increased the number of HSCs (CD133) and ECs (CD34)
